Assay results published in patent publication US4632978A, “6-serine, des-19-leucine calcitonin” (Armour Pharmaceutical Corp., priority 1985, dated 1986).
Bridge positions count the residues as written; N and C are the ends. Ends that are not written are not given here.

Key:
[1] = tested on: serum calcium concentration; experiment: Biological assay of calcitonin analogs in vivo: reduction of serum calcium concentration, 2×2 parallel line assay against synthetic salmon calcitonin standard; conditions: rats, subcutaneous injection, blood withdrawn 1 hour later, vs synthetic salmon calcitonin standard
Experimental: Biological Assay Of Calcitonin Analogs In Vivo
The biological potency of Ser^6, des-Leu^19 -salmon calcitonin was determined by comparing the reduction of serum calcium concentration which followed administration by graded doses of Ser^6, des-Leu^19 SCT and synthetic salmon calcitonin standard. Rats were divided into four groups of seven animals, and each group was assigned at random to a dose of standard or test solution. Low and high doses where chosen from the linear portion of the dose-response curve. For the salmon calcitonin standard, the values were 0.7 and 2.1 ng. peptide/100 g. body weight (BW). This dose approximates 3 and 9 MU/100 g. BW. Peptides were given by subcutaneous injection (0.2 ml/100 g. BW) and blood was withdrawn 1 hour later for serum calcium determination. Sera are processed and analyzed within two hours of collection. […]. Results were analyzed by a 2×2 parallel line assay [Gaddum, J. H., J. Pharm. Pharmacol., 5, 345 (1953)]. The standard salmon calcitonin used was independently determined to contain greater than 4,000 IU/mg. Ser^6,des-Leu^19 -SCT assayed at 8400 IU/mg.

[2] = literature values, Monikawa et al.; cited from earlier work

6-serine, des-19-leucine-salmon calcitonin [Ser^6,des-Leu^19 -SCT]
biological potency (reduction of serum calcium concentration) [1]: 8400 IU/mg

(1,7-α-L-aminosuberic acid)eel calcitonin
hypocalcemic potency [2]: about 3400 IU/mg

eel calcitonin (CSNLSTCVLGKLSQELHKLQTYPRTDVGAGTP-NH2; disulfide 1-7; ends not checked; UniProt P01262 1-32, looked up) [synthetic eel calcitonin, synthetic eel calcitonin from Monikawa et al]
hypocalcemic potency [2]: around 4300 IU/mg
